From patent US11155576B2, “Synthetic peptides, enzymatic formation of pericellular hydrogels/nanofibrils, and methods of use” (BRANDEIS UNIVERSITY, priority 2014, dated 2021)

Experiments:
MES-SA/Dx5 cells = assay: MES-SA/Dx5 tumor model in nude mice; assay type: in vivo; settings: subcutaneous and peritumoral, 800 μg dose (~32 mg/kg), 6 times every 3 days
Procedure: Nine nude mice were used for experiments to define the tumor growth curve. 1×10^7 MES-SA/Dx5 cells were implanted into the mice via […] using a 25 G needle. Three of the tumor-bearing mice were used to define the tumor growth curve with control treatment, and six mice were given D-2a. The mice were injected subcutaneously and peritumorally (6 times, every 3 days starting at Day 1) with either 100 μL of D-2a at 8 μg/μL (800 μg dose or ˜32 mg/kg) in PBS buffer (experimental) or 100 μL of PBS buffer (control). Tumor volume measurements were made every three days, also starting on Day 1. Volume of tumors was measured by caliper.

active PARP = assay: Apoptosis pathway assay (ELISA), active PARP; assay type: cell-based, human; settings: HeLa cells, 280 μM, at 24 and 32 hours of incubation
Procedure: The apoptosis pathway was evaluated using the PathScan® Apoptosis Multi-Target Sandwich ELISA Kit (Cell Signaling Technology) following the supplied protocol. Cells in exponential growth phase were seeded in a 6 cm Petri dish at a concentration of 10×10^5 cells/dish (5 dishes). Cells were allowed to attach to the wells for 24 hours at 37° C., 5% CO2. The culture medium was removed and 5 mL medium containing 280 μM D-2a (immediately diluted from fresh prepared stock solution of 11.2 mM) was placed into each dish. At 0, 6, 12, 24, or 32 hours, the medium was removed and cells were washed three times with cold PBS buffer. 0.9 mL lysis buffer was used to lyse cells in each dish, and 0.9 mL of diluents buffer was used to dilute each of the cell lysate. The lysate was incubated in the provided 96 well plate at 4° C. for 24 hours.
ELISA was used to quantify the amount of several key apoptosis signal molecules over time in the HeLa cells incubated with 280 μM D-2a (FIG. 3E).

HeLa cells [1] = assay: Pericellular hydrogelation on HeLa cells (optical images); assay type: cell-based, human
Procedure: An 11.2 mM (8.09 mg/mL) stock solution of D-2a was prepared in ddH2O. The pH was adjusted to 7.4 using 1N NaOH. 2×10^5 cells in exponential growth phase were seeded in 35 mm Petri dish with 1 mL complete culture medium. Following overnight incubation, the medium was replaced with 1 mL of medium containing D-2a (diluted from the stock solution immediately prior to use). Petri dishes were incubated at 37° C. for two hours. Next, dishes were removed from the incubator and titled on a bench to visualize the pericellular hydrogel. Prior to co-incubation with phosphatase inhibitors, cells were washed three times with medium containing Pierce phosphatase inhibitor cocktail (Thermo) (contains sodium floride, sodium orthovanadate, sodium pyrophosphate, and beta-glycerophosphate). Next, 1 mL of medium containing both the inhibitor cocktail and D-2a was applied to the cells.

[2] = Cell viability assay (MTT), HeLa; assay type: cell-based, human; settings: human, HeLa cells, 48 hour incubation
Procedure: Cells in exponential growth phase were seeded in a 96 well plate at a concentration of 2×10^4 cells/well. The cells were allowed to attach to the wells for 24 hours at 37° C., 5% CO2. The culture medium was removed and 100 μL culture medium containing compounds (immediately diluted from fresh prepared stock solution of 10 mM) at gradient concentrations (0 μM as the control) was placed into each well. After culturing at 37° C., 5% CO2 for 48 hours, each well was added by 10 μL of 5 mg/mL MTT (3-(4,5-dimethylthiazoL-2-yl)-2,5-diphenyltetrazolium bromide), and the plated cells were incubated in the dark for 4 hours. 100 μL 10% SDS with 0.01M HCl was added to each well to stop the reduction reaction and to dissolve the purple. After overnight incubation of the cells at 37° C., the OD at 595 nm of the solution was measured in a microplate reader. Data represent the mean±standard deviation of three independent experiments.

HeLa cells [3] = assay: Cell migration (wound healing) assay; assay type: cell-based, human; settings: 18 hours
Procedure: Cell migration was evaluated using the wound healing assay with the CytoSelect™ Wound Healing Assay Kit (Cell Biolabs, Inc). Wound healing inserts with width at 0.9 mm were placed into 24-well plates. 0.8 mL of HeLa cells at 2×10^5 cells/mL were added to either side of the insert and incubated overnight to form a confluent layer. Inserts were then carefully removed to expose the gap. After removing the culture medium, new medium containing the molecules was added to cells. The cells were next incubated at 37° C., 5% CO2 for 18 hours. Images of gaps before and after the addition of the molecules were captured using a microscope at a magnification of ×40. Cell migration was quantified by measuring the change in gap distance.

HeLa cells [4] = assay: LC-MS composition of pericellular hydrogel/nanofibrils and suspension medium of HeLa cells; assay type: in vitro ADME, human
HeLa cells [5] = assay: Negative stained TEM of pericellular hydrogel on HeLa cells; assay type: physicochemical, human; settings: HeLa cells treated with 280 μM D-2a
Procedure: Carbon coated copper grids were glow-discharged to increase their hydrophilicity prior to use. Pericellular hydrogel/nanofibrils were obtained by incubating D-2a at 280 μM with HeLa cells for 2 hours. Cell culture medium was removed in order to expose the pericellular hydrogel. The carbon coated side of the grid was gently pressed onto the pericellular hydrogel for 1 second. Next, the sample-loaded surface was washed using a drop of ddH2O. To remove excess water from the grid, the edge of the grid was immediately tilted and blotted three times against a filter paper. The grid was stained by letting the grid touch a drop of 2.0% (w/v) uranyl acetate with the sample-loaded surface. Excessive stain solution was removed by gently touching the grid with a drop of ddH2O. The grid was then dried by touching the edge of the grid with a filter paper for 3 times. The grid was air dried for a few minutes and examined immediately.
That is, the nanofibrils form nanonets. Similar to the nanofibrils of D-2b formed by the addition of ALP into the solution of D-2a in PBS buffer (FIG. 7), these cell-surface nanofibrils entangle with each other to form the matrices of the hydrogel.

[6] = tested on: secretory phosphatases present in HeLa cell conditioned medium; assay: Hydrogelation in HeLa cell conditioned medium; assay type: biochemical, human; settings: 48 hours
Procedure: 2×10^5 of cells in exponential growth phase were seeded in a 35 mm Petri dish with 1 mL complete culture medium. Following overnight incubation, 1 mL of new medium was replaced and incubated for 24 h at 5% CO2, 37° C. The medium was next removed and centrifuged at 10,000 rpm for 5 minutes. The suspension was placed into a 1.5 mL Eppendorf® tube and stored at −20° C. Stored conditioned medium was thawed and warmed to 37° C. in water bath immediately before use.
HeLa cell conditioned medium (“CM”) dephosphorylates D-2a to form D-2b nanofibrils.

[7] = HeLa cells incubated with precursor at 560 μM at 37° C. for 12 hours

Structure (SMILES): O=C(Cc1ccc2ccccc2c1)N[C@H](Cc1ccccc1)C(=O)N[C@H](Cc1ccccc1)C(=O)N[C@H](Cc1ccc(OP(=O)(O)O)cc1)C(=O)O [D-2a, Nap-D-Phe-D-Phe-D-Tyr(PO3H2)]
- Day by which statistically significant differences between experimental and control groups were observed (MES-SA/Dx5 cells): ≤ 13 days
- Relative tumor volume / tumor growth (MES-SA/Dx5 cells): inhibited tumor growth
- Amount of active PARP (active PARP): increase significantly
- Pericellular hydrogel formation on HeLa cells (HeLa cells [1]; 140 μM, 2 hours at 37° C.): Little hydrogelation
- Pericellular hydrogel formation on HeLa cells (HeLa cells [1]; 280 μM, 2 hours at 37° C.): formation of a hydrogel-like soft material (hydrogel) on the cell surface
- Pericellular hydrogel formation on HeLa cells (HeLa cells [1]; 560 μM D-2a in the presence of ALP (0.1 U/mL), 2 hours): hardly any pericellular hydrogelation
- Pericellular hydrogel formation on HeLa cells (HeLa cells [1]; 560 μM D-2a with phosphatase inhibitors (Pierce), 2 hours): prevent formation of the pericellular hydrogel
- Pericellular hydrogel formation on HeLa cells (HeLa cells [1]; 560 μM, 2 hours at 37° C.): formation of a hydrogel-like soft material (hydrogel) on the cell surface
- viability at 48 h, 280 µM [2]: ~10%
- Cell migration (gap) (HeLa cells [3]; 280 μM): gaps larger than those of untreated cells
- Cell migration (gap) (HeLa cells [3]; 560 μM): gaps larger than those of untreated cells
- D-2b in pericellular hydrogel (HeLa cells [4]; [7]): 2053.9 µM
- D-2b in suspension medium (HeLa cells [4]; [7]): 502.5 µM
- Concentration of D-2b in the hydrogel (LC-MS) (HeLa cells [4]; hydrogel of FIG. 2A, HeLa monolayers treated with 500 μM D-2a as printed): approximately 2.05 mM
- Diameter of nanofibrils of the pericellular hydrogel (HeLa cells [5]): about 20 nm
- Hydrogel formation in HeLa cell conditioned medium ([6]; 140 μM): fails to form a hydrogel
- Hydrogel formation in HeLa cell conditioned medium ([6]; 280 μM): completely transforms from a solution to a hydrogel
- Hydrogel formation in HeLa cell conditioned medium ([6]; 560 μM): completely transforms from a solution to a hydrogel
